# Test results taken from patent publication US20030055103A1, “Utilization of achyrocline satureoides ("Marcela") extracts and liposomal preparations of natural and semi-synthetic flavonoids for the prevention and treatment of the consequences of stroke and neurodegenerative diseases” (priority 2001, published 2003).
# Entries after “also recorded” stand apart in the source; their conditions may differ. Like-named read-outs stand apart in the source and are kept apart here. Peptide text beside a SMILES is read from it.
# What was measured:
# [1] = test system: PC12 cells; experiment: PC12 cell survival after H2O2 oxidative insult (MTT reduction); format: cell-based; conditions: 200 μM H2O2 30 min, result in words
# Method: PC12 cells (Greene and Tischler 1976, Shafer and Atchison 1991) were grown in RPMI supplemented with 10% heat-inactivated horse serum (HSI), 5% fetal bovine serum (FBS), penicillin and streptomycin on a collagen matrix. Typically, cells were sow (1:4 in a total volume of 10 ml complete medium) in 100×20 mm cell culture dishes and grown at 37° C. in at atmosphere of 5% CO2 for a week. Media was changed twice a week. Cultures were not used in more than 25 passages.
# Cells were plated at a low density (100 cells/μl) in 200 μl of complete medium on 96-well cell culture plates on a poli-D-lysine matrix to do all the experiments except the comet assay. To do the latter, 100×20mm-cell culture dishes were adequate. All the experiments were started 24 hrs after the sow.
# Cells were exposed to H2O2 200 μM during half an hour (medium was changed to stop the treatment) and all the evaluations were fulfilled 2 hrs later.
# This assay measures the reduction of 3-(4,5-dimethyl-thiazol-2-yl)-2,5-diphenil tetrazolium bromide (MTT) (yellowish) to formazan (blue) by mitochondrial dehydrogenases of the living cells. The fresh complete medium added after the treatment was supplemented with MTT (0.5 mg/ml ). Following an incubation period of 2 hrs, it was removed and half-its volume of dimethylsulfoxide (DMSO) was added to achieve solubilization. Absorption values were read immediately at 570-640 nm (Denizot and Lang 1986). […]
# [2] = test system: spontaneous lipoperoxidation of rat's brain membranes; experiment: Spontaneous lipoperoxidation of rat brain membranes (malondialdehyde production); format: biochemical; conditions: for antioxidant potency / capacity: anti-lipoperoxidation assay (test not given)
# [3] = test system: rats injected with 6-OHDA in the SN; experiment: 6-OHDA lesion of the Substantia Nigra (experimental parkinsonism), striatal dopamine; format: in vivo, rat; conditions: given intraperitoneally before 6-OHDA, assessed eight days after, result in words
# [4] = Acute toxicity (species not given); conditions: intraperitoneal or oral, doses up to 300 mg/kg
# [5] = test system: male Sprague-Dawley rats; experiment: Permanent focal MCA occlusion, TTC morphometry and histology; format: in vivo, rat; conditions: result in words
# [6] = Quercetin concentration in rat blood after intraperitoneal administration; format: in vivo
# Text: FIG. 17. A graph of Quercetin concentration in rat blood at different periods after intraperitoneal administration.
# [7] = inhibition of spontaneous lipoperoxidation, rat brain membranes, read-out: IC50
"IC50 [2, 7] [µM]",Structure (SMILES),protection / cell survival after H2O2 insult [1],neuroprotection: dopamine level in ipsilateral striatum [3],further results
–,"Cn1cnc(N)c2ncnc1-2 [3-MT, 3-methyladenine]",block H2O2-induced cell death,–,–
48.6,O=C(O)/C=C/c1ccc(O)c(O)c1 [Caffeic acid],–,–,–
28.3,Oc1cc(O)c2c(c1)OC(c1ccc(O)c(O)c1)C(O)C2 (stereo not drawn) [Catequin],–,–,–
–,"CC(=O)N[C@@H](CC(C)C)C(=O)N[C@@H](CCC(=O)O)C(=O)N[C@@H](Cc1c[nH]cn1)C(=O)N[C@H](C=O)CC(=O)O [LEHD, acetyl-L-leucyl-L-glutamyl-L-histidyl-L-aspart-1-al] (Ac-LEHD-aldehyde)",block H2O2-induced cell death,–,–
1400,COc1ccc2[nH]cc(CCNC(C)=O)c2c1 [Melatonine],did not increased survival,weaker in its neuroprotection,–
–,CN1CCCC1c1cccnc1 (stereo not drawn) [Nicotine],–,reverted dopamine levels in the ipsilateral striatum,antioxidant potency / capacity ([2]; result in words): negligible
–,"CC[C@H](C)[C@H](NC(=O)[C@H](CCC(=O)O)NC(=O)[C@@H](NC(C)=O)C(C)C)C(=O)N[C@H](C=O)CC(=O)O [VEID, acetyl-L-valyl-L-glutamyl-L-isoleucyl-L-aspart-1-al] (Ac-VEID-aldehyde)",block H2O2-induced cell death,–,–
–,O=c1c(O)c(-c2ccc(O)c(O)c2)oc2cc(O)ccc12 [fisetin],did show neuroprotectant capacity,–,–
–,O=c1c(O)c(-c2cc(O)c(O)c(O)c2)oc2cc(O)cc(O)c12 [myricetin],did show neuroprotectant capacity,–,–
–,Cc1c(C)c2c(c(C)c1O)CCC(C)(C(=O)O)O2 (stereo not drawn) [trolox],"only marcela extracts, quercetin or structurally similar flavonoids protected PC12 cells",–,–
–,"Cc1c(C)c2c(c(C)c1O)CC[C@@](C)(CCC[C@H](C)CCC[C@H](C)CCCC(C)C)O2 [vitamin E, alpha-tocopherol]","only marcela extracts, quercetin or structurally similar flavonoids protected PC12 cells",–,protection / cell survival after H2O2 insult ([1]; listed as alpha-tocopherol): did not increased survival

Structure (SMILES),"IC50 [2, 7] [µM]",protection / cell survival after H2O2 insult [1],neuroprotection: dopamine level in ipsilateral striatum [3],further results
COc1cc2c(cc1O)C[C@H]1c3c(cc(O)c(OC)c3-2)CCN1C [Boldine],12.8,"only marcela extracts, quercetin or structurally similar flavonoids protected PC12 cells; also recorded: did not increased survival",did not revert in vivo the oxidative lesion; also recorded: did not show neuroprotection activity,antioxidant potency / capacity ([2]; result in words): highest antioxidant potency
O=c1c(O)c(-c2ccc(O)c(O)c2)oc2cc(O)cc(O)c12 [Quercetin],3.7,protected PC12 cells; also recorded: protects PC12 cells against H2O2; also recorded: Neuroprotectan effect,did not show neuroprotection activity,"adverse effects in acute toxicity experiments [4]: did not show any adverse effects; ischemic lesion area ([5]; liposomal quercetin 30 mg/kg i.p. 30 min after ischemia, TTC at 24 hrs): clearly decreased the lesion area; also recorded: marked and significant decrease of the ischemic area; also recorded: recovery of the ischemic areas is clear cut; number of neurons in Nissl stained slices ([5]; striatum and cortex, 24 hrs after occlusion): higher than ischemic rats and non different from controls; malondialdehyde production during spontaneous lipoperoxidation ([2]; result in words): decreased malondialdehyde production; antioxidant potency / capacity ([2]; result in words): potent antioxidants; IC50 ([2]; spontaneous lipoperoxidation, marcela expressed in quercetin equivalents): 1.11 µg/mL; neuroprotection: dopamine level in ipsilateral striatum ([3]; listed as quercetin): did not revert in vivo the oxidative lesion; also recorded: appear not to have neuroprotectant effects in vivo; time quercetin is detected in blood [6]: up to two"
